“Also recorded” adds a separate entry of the source.
Molecular target: T1, human serum albumin (Homo sapiens, UniProt P02768)
T1 construct: purchased Sigma, St. Louis, MO
Assay: Equilibrium dialysis of 14C-L-TRP binding to human serum albumin in presence of ligands (Scatchard plots)
Conditions: for effect on L-TRP binding to albumin: one molar equivalent of ligand; for effect on L-TRP binding capacity of albumin: second and third molar equivalents of ligand; for reduction of the affinity (Ka) of L-TRP for albumin: two moles of ligand per mole albumin, equilibrium dialysis, 37° C., pH 7.4
Description: Human serum albumin (Fraction V) was purchased from Sigma, St. Louis, MO. The protein was defatted with activated charcoal according to Chen, R. F. (1967), J. Biol. Chem 242: 173-181 and monomeric albumin purified as previously described in Soltys, B. J. and Hsia, J. C. (1977), J. Biol. Chem. 252: 4043-4048. Protein concentration was determined by absorption of ultraviolet light, assuming E279 nm^1% =5.30 according to Clark, P., Rachinsky, M. R. and Foster, J. F. (1962), J. Biol. Chem. 237: 2509-2513. The sodium salt of cis-parinaric acid was dissolved in 1×10^-4 Malbumin in Ringer's buffer. The Ringer's buffer contained 110 mM NaCl, 5 mM KCl, 1.2 mM MgSO4, 1.2 mM KH2 PO4 and 10 mM Na2 HPO4 at a pH of 7.4 at 37° C. L-tryptophan, stearate and bilirubin were also purchased from Sigma, St. Louis, MO. cis-parinaric acid was purchased from Molecular Probes Inc., Plano, TX. L-[side chain-3 -^14 C]-tryptophan (^14 C-L-TRP) was purchased from New England Nuclear, Boston, Mass. Fatty acids and bilirubin were dissolved in albumin solution essentially as previously described in Soltys, B. J. and Hsia, J. C. (1977), J. Viol. Chem. 252: 4043-4048. Briefly, fatty acid or bilirubin (sodium salt) in methanol was dried under vacuum in dim light to form a thin film in a small glass vial. The albumin solution was added to the vial and gently blended on a Vortex mixer until optically clear.
Equilibrium dialysis cells (approximately 200 μl total capacity) with injection/sampling ports were used. Dialysis membranes (Canlab, Toronto, Ont), previously boiled in distilled water, were placed on one half-cell and then the two half-cells were bolted together. 100 ul of albumin (1×10^-4 M), or its ligand complex was added to one side of the dialysis cells, while 100 μl of a solution of ^14 C-L-TRP was added to the other side.
The cells were sealed with tape and incubated with slight oscillation at 37±0.5° C. in a jacketed incubator (Model 3314, Forma Scientific, Marietta, OH). The cells contained total amount of L-TRP varying from 0.5 to 20 times the number of moles of albumin. After six hours incubation, 25 μl samples were drawn from the albumin side and the buffer side of each cell. These were counted in 6 ml plastic scintillation vials (Canlab) containing 5 ml Aquasol (New England Nuclear) in a liquid scintillation counter (LS 9000, Beckman, Irvine, CA). A quench curve was constructed to correct for quenching of counts by bilirubin.
The equation for the Scatchard plot is
where n is the number of binding sites and Ka is the apparent association constant. Thus the r-intercept is n and the r/c-intercept is nK (a measure of binding capacity), while the negative slope yields the Ka.

T1 sequence (P02768 25-609): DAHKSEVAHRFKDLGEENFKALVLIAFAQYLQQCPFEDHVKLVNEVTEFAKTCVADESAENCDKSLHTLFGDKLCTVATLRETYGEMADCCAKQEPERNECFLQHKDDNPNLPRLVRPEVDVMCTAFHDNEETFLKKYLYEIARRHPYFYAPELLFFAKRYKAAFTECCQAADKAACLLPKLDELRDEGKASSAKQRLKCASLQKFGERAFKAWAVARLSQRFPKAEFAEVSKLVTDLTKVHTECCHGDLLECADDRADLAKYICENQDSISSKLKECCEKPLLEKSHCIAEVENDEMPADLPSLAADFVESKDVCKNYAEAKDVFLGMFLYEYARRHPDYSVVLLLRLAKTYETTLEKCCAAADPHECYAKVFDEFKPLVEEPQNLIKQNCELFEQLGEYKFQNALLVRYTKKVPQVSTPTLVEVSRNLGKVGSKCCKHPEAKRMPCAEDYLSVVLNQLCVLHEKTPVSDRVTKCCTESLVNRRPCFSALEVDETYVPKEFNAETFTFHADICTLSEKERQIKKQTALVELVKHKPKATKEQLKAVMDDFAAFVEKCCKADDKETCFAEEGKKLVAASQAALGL

| SMILES | number of primary binding sites on human serum albumin (Scatchard plot without competing ligand (FIG. 1)) | effect on L-TRP binding to albumin | effect on L-TRP binding capacity of albumin | displacement of albumin-bound tryptophan (2:1 ligand-to-albumin ratio) | effect on specific (primary site) L-TRP binding capacity of albumin (4.0 moles of ligand per mole albumin) | inhibitory effect on L-TRP binding capacity of albumin (higher molar ratios (2.0 to 4.0) of ligand) | reduction of the affinity (Ka) of L-TRP for albumin |
| --- | --- | --- | --- | --- | --- | --- | --- |
| N[C@@H](Cc1c[nH]c2ccccc12)C(=O)O [L-TRP, L-tryptophan] | one | – | – | – | – | – | – |
| C=CC1=C(C)/C(=C/c2[nH]c(Cc3[nH]c(/C=C4\NC(=O)C(C)=C4C=C)c(C)c3CCC(=O)O)c(CCC(=O)O)c2C)NC1=O [bilirubin, reference compound] | – | did not affect; also recorded: little effect | progressive inhibition | – | – | – | – |
| CC\C=C/C=C/C=C/C=C\CCCCCCCC(=O)O [cis-parinaric acid, cis, trans, trans, cis-9,11,13,15-octadecatetraenoic acid] | – | strong inhibitory effect | abolished | up to 90% | completely blocked; also recorded: completely abolished | most effective | 80% |
| CCCCCCCCCCCCCCCCCC(=O)O [stearate, reference compound] | – | – | – | – | – | – | 20% |
